In one series the target is T1, Hexokinase-4 (Homo sapiens, UniProt P35557).
T1 sequence (P35557 whole entry): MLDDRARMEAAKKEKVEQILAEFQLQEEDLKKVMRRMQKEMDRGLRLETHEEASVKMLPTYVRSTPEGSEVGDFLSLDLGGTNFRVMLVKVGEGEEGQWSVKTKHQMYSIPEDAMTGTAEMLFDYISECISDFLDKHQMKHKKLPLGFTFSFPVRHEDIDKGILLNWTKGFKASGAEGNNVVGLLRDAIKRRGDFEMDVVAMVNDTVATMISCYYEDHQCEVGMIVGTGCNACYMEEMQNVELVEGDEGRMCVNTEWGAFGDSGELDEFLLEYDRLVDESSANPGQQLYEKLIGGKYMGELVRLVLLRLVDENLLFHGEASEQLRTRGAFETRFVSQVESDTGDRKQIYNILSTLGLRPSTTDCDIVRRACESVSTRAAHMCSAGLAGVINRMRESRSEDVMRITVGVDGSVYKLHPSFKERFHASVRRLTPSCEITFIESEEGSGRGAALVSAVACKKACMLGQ
Kind of series: Allosteric activation of human glucokinase using glucose as substrate measured every 10 secs for 5 mins.

The next series concerns Rattus norvegicus. Nature of the series: Antidiabetic activity in high fat-fed Zucker diabetic fatty rat assessed as decrease in blood glucose AUC at 50 mg/kg, po after 21 days on high-fat diet measured for 2 hrs post dose by OGTT relative to control. Further details: scale not given: the % may be the effect or the level left.
Series [1] has as its system Mus musculus. Nature of the series: Antidiabetic activity in C57BL/6J mouse assessed as reduction of glucose excursion at 50 mg/kg, po administered 30 mins prior to glucose challenge measured over 2 hrs by OGTT. In kind it is functional, organism-based. Further details: dose 50 mg/kg.
Series [2] has as its system Mus musculus. Nature of the series: Toxicity in C57BL/6J mouse assessed as induction of hypoglycemia at 50 mg/kg, po administered 30 mins prior to glucose challenge measured over 2 hrs. Format: organism-based. Further details: dose 50 mg/kg, route oral. The settings on record: in vivo.
Series [3] can be described thus: Terminal plasma concentration in C57BL/6J mouse at 50 mg/kg, po administered 30 mins measured after 2.5 hrs. Particulars: read-out: Cp(T). Further details: dose 50 mg/kg, route oral. Format: ADME, organism-based.

Activity calls are given as the source filed them. No cut-off for these calls is given here.

We go through 17 compounds from ChEMBL document CHEMBL2429745, “Identification of a new class of glucokinase activators through structure-based design” (J Med Chem, 2013).

In general, EC50 refers to the concentration that produces a half-maximal response.

In turn, `Cc1csc(Nc2ncccc2OCc2cccc(O)c2)n1` yielded an EC50 at Hexokinase-4 of 3.44 µM.

In the case of `CC(C)c1csc(Nc2ncc(SCCn3ccnc3)cc2OCc2ccccc2)n1`, the Activity is given as 23% in the series with Rattus norvegicus and “Non-toxic” in the series on Mus musculus [2]. In the series on Mus musculus [1], the outcome was Active. Further, the concentration at 2.5 h in series [3] stood at 4.5 µg/mL. In turn, `CC(C)c1csc(Nc2ncc(Br)cc2OCc2ccccc2)n1` registered an EC50 at Hexokinase-4 of 0.24 µM.

At Hexokinase-4, `COc1cccc(COc2cccnc2Nc2nc(C)cs2)c1` came in with an EC50 of 3.22 µM.

Consider `Cc1csc(Nc2ncccc2OCc2cccnc2)n1`, for which the EC50 at Hexokinase-4 came out at 7.78 µM. Compound `Cc1csc(Nc2ncc(SCc3ccccn3)cc2OCc2ccccc2)n1` showed an EC50 on Hexokinase-4 of 0.077 µM. On the same count and under the same terms, next, `Cc1csc(Nc2ncccc2OCc2ccccn2)n1`: 12.3 µM. For `Cc1csc(Nc2ncc(SCCn3ccnc3)cc2OCc2ccccc2)n1`, a half-maximal response at Hexokinase-4 (EC50) required 0.325 µM. The same measure, in the same setting: next, `Cc1csc(Nc2ncc(Br)cc2OCc2ccccc2)n1`: 0.687 µM; `CCc1csc(Nc2ncc(Br)cc2OCc2ccccc2)n1`: 0.562 µM; `Cc1csc(Nc2ncc(Cl)cc2OCc2ccccc2)n1`: 0.796 µM.

Turning to `Cc1csc(Nc2ncc(Sc3ccccn3)cc2OCc2ccccc2)n1`, it took 0.231 µM to reach a half-maximal effect at Hexokinase-4 (EC50). In the case of `Cc1csc(Nc2ncc(Sc3ccccc3)cc2OCc2ccccc2)n1`, the response on Hexokinase-4 was half-maximal at 0.208 µM (EC50). On Hexokinase-4, `Cc1csc(Nc2ncc(SCc3ccccc3)cc2OCc2ccccc2)n1` displayed an EC50 of 0.235 µM. For `CC(C)Cc1csc(Nc2ncc(Br)cc2OCc2ccccc2)n1`, a half-maximal effect on Hexokinase-4 (EC50) was put at 0.356 µM. Consider `N#C[C@@H]1CCCN1C(=O)CNC12CC3CC(CC(O)(C3)C1)C2` [VILDAGLIPTIN], for which, in the series on Rattus norvegicus, the Activity is 24%. As for `Cc1csc(Nc2ncccc2OCc2cccc3cccnc23)n1`, at Hexokinase-4, it took 1.7 µM to reach a half-maximal effect (EC50).
